Laboratory results as given in US7112418B2, “Ion channel” (priority 1995, dated 2006).
Read-outs that look alike come from different tables or passages of the source.

How the values were obtained:
[1] = target: muscle type 1 sodium channel (Rattus norvegicus, UniProt P15390); conditions: read-out: IC50 (TTX Sensitivity); cited from earlier work
[2] = target: SNS sodium channel (Rattus norvegicus, UniProt Q62968); assay type: cell-based
[3] = target: mutated SNS sodium channel (SNS mutant) (Rattus norvegicus, UniProt Q62968, S356F); assay type: cell-based; conditions: read-out: IC50 (TTX sensitivity restored)
mutated SNS sodium channel (SNS mutant), sequence (Q62968 whole entry S356F, looked up): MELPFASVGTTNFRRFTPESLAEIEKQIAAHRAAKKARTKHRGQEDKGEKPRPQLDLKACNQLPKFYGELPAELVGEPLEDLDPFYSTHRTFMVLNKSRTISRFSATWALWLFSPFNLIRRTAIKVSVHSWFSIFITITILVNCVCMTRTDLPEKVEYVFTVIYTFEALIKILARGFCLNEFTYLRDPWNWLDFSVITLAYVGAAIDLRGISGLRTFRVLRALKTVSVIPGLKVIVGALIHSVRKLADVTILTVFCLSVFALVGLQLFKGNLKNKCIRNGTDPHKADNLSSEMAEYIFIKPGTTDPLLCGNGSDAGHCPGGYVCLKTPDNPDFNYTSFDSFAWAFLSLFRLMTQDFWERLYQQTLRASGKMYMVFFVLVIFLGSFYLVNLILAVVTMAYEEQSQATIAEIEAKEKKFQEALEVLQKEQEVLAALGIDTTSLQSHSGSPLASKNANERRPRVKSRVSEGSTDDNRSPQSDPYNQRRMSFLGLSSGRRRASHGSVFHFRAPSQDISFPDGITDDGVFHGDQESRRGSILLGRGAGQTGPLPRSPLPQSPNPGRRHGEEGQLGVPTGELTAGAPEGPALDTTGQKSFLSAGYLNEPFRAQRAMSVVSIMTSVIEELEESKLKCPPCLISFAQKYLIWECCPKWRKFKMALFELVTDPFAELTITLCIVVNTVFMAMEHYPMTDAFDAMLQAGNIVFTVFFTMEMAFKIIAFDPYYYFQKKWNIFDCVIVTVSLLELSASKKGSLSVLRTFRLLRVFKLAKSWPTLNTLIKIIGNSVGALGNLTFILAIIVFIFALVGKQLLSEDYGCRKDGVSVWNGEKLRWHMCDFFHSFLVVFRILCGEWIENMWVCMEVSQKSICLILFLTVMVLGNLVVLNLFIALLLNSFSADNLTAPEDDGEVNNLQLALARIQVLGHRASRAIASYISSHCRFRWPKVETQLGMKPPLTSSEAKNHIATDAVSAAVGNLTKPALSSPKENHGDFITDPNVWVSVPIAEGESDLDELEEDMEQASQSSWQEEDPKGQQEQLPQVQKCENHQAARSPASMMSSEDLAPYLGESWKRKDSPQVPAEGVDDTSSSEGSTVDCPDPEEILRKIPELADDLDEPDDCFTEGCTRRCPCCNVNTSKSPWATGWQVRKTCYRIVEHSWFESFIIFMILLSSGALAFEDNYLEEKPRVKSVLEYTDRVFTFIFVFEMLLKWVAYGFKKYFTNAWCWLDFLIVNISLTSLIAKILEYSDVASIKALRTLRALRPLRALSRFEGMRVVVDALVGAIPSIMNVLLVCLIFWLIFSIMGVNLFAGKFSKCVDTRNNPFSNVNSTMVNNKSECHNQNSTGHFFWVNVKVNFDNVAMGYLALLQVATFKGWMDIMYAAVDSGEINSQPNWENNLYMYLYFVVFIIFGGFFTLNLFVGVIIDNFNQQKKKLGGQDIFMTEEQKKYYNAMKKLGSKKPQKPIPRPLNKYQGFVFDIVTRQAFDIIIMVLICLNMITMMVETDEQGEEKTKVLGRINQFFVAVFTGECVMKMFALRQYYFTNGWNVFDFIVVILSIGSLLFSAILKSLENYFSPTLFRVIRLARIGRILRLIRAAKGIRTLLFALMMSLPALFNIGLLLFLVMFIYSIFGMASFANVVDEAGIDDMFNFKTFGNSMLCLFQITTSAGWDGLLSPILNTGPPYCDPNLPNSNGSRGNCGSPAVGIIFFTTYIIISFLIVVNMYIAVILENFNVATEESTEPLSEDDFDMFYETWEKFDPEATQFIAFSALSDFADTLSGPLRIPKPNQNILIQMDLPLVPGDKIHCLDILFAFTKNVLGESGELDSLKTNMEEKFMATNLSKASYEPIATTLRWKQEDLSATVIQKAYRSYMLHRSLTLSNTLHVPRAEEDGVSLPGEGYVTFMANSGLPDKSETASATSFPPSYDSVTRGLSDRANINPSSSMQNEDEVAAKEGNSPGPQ

[4] = test system: Rat brain iia sodium channel; conditions: read-out: IC50 (TTX Sensitivity); cited from earlier work
[5] = test system: DRG sodium channel transcripts; experiment: RT-PCR of DRG sodium channel transcripts in DRG of neonatal animals treated with capsaicin; assay type: in vivo, rat; conditions: 50 mg/kg on 2 consecutive days, DRG isolation 5 days later
Method: (§1) cDNA was synthesized with Superscript reverse transcriptase using oligo dT(12-18) primers and purified on Qiagen 5 tips. Polymerase chain reaction (PCR) was used to amplify cDNA (35 cycles, 94° C., 1 min; 55° C., 1 min; and 72° C., 1 min), and products separated on agarose gels before staining with ethidium bromide. L-27 primers (Ninkina et al. (1983) Nucleic Acids Res. 21, 3175-3182) were added to the PCR reaction 5 cycles after the start of the reaction with the DRG sodium channel specific primers which comprised

[6] = test system: DRG sodium channel transcript; experiment: Northern blot of adult DRG RNA from rats treated with capsaicin as neonates; assay type: in vivo, rat; conditions: neonatal rats treated, total adult DRG RNA
Method: Random primed ^32P-labeled DNA Pst-Acc 1 fragment probes (50 ng, specific activity 2×10^9 c.p.m. per μg DNA) from interdomain region 1 (nucleotide position 1,478-1,892) of the SNS sodium channel nucleic acid sequence were used to probe total RNA extracted from tissues.
Total RNA was separated on 1.2% agarose-formaldehyde gels, and capillary blotted onto Hibond-N filters (Amersham). The amounts of RNA on the blot were roughly equivalent, as judged by ethidium bromide staining of ribosomal RNA and by hybridization with the ubiquitously expressed L-27 ribosomal protein transcripts. Filters were prehybridized in 50% formamide, 5×SSC containing 0.5% sodium dodecyl sulfate, 5× Denhardts solution, 100 μg/ml boiled sonicated salmon sperm DNA (average size 300 bp), 10 μg/ml poly-U and 10 μg/ml poly-C at 45° C. for 6 h. After 36 hours hybridization in the same conditions using 10^7 c.p.m. per ml hybridization probe, the filters were briefly washed in 2×SSC at room temperature, then twice with 2×SSC with 0.5% SDS at 68° C. for 15 min, followed by a 20 min wash in 0.5% SDS, 0.2×SSC at 68° C. The filters were autoradiographed overnight or for 4 days on autoradiography film (Kodak X-omat).

[7] = test system: DRG sodium channel transcripts; experiment: RT-PCR of DRG sodium channel transcripts in cultured DRG neurons treated with capsaicin; assay type: cell-based, rat; conditions: overnight 10 μM
Method: as §1

SNS sodium channel, sequence (Q62968 other isoform, or with tags, fused parts or gaps with the stated changes): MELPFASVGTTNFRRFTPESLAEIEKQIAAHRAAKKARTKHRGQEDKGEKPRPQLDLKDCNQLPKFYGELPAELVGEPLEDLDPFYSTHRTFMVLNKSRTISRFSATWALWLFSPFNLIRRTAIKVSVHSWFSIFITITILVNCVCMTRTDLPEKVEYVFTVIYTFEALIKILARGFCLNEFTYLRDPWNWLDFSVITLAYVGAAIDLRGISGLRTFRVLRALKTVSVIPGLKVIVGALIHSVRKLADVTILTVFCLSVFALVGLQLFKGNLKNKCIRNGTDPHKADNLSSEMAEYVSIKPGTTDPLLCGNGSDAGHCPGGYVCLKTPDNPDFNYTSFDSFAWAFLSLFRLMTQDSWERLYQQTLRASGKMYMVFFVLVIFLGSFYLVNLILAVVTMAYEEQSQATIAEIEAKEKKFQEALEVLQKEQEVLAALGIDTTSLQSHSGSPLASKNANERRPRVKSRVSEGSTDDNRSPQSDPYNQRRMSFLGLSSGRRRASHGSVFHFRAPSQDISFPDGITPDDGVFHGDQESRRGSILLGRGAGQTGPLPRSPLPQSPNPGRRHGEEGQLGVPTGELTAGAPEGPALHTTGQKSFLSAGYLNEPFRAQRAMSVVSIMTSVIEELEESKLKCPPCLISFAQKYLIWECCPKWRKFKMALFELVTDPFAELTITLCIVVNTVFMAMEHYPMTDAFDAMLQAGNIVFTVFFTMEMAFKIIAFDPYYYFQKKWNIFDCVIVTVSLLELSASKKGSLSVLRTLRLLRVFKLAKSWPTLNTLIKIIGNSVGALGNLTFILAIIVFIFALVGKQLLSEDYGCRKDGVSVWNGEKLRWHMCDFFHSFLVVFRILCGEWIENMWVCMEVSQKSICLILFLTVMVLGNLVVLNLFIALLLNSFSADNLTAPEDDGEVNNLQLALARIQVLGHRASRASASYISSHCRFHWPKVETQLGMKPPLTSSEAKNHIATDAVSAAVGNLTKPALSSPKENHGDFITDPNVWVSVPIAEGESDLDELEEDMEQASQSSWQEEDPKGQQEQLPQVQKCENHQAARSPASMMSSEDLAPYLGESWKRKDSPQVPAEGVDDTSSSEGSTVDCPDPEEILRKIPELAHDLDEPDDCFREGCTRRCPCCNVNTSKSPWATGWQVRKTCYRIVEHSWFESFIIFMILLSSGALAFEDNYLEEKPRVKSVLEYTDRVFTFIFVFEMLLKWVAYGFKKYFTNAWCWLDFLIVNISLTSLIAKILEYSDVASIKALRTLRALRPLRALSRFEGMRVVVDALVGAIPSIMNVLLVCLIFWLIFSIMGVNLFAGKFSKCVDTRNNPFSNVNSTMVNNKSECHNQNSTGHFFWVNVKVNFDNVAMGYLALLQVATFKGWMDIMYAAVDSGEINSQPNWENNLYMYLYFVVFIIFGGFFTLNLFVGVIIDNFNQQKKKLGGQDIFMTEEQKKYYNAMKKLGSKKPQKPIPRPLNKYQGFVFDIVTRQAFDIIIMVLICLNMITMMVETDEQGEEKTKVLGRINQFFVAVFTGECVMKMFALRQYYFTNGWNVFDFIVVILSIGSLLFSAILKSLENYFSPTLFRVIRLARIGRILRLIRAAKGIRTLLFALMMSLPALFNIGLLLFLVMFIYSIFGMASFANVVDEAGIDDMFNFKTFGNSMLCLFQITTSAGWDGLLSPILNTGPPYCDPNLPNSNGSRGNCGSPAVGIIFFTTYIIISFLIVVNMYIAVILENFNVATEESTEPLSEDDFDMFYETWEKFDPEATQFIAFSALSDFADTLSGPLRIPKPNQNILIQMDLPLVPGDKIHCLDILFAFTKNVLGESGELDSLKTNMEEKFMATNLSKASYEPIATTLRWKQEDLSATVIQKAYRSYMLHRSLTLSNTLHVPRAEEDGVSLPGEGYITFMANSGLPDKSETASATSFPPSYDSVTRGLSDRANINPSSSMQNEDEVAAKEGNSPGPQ

For `NC1=N[C@H](O)[C@H]2[C@H]3O[C@]4(O)O[C@@H]([C@@H](O)[C@@]2(N1)[C@@H]4O)[C@]3(O)CO` [TTX, tetrodotoxin], the IC50 [1] is listed as 40 nM, the “block of the channel” value [2] is listed as “only partially blocked” and the “effect on peak Na+ current” value [2] is listed as “no effect”. The “effect on the channel” value [2] was “unaffected”, the “reduction of peak Na+ current” value [2] was 19.1±8.3% and the “reversibility of effect on peak Na+ current” value [2] was “quickly reversible upon washout”. It also gave an IC50 ([2]; read-out: IC50 (TTX Sensitivity)) of 60000 nM, an IC50 ([2]; read-out: IC50 (relative insensitivity to TTX)) greater than 1000 nM and an IC50 ([2]; read-out: estimated half-maximal inhibitory concentration (IC50)) of 59600 ± 10100 nM. For the same compound, the IC50 [3] was 2.5 nM and the IC50 [4] was 18 nM.
In the case of `COc1cc(CNC(=O)CCCC/C=C/C(C)C)ccc1O` [capsaicin], the “DRG sodium channel signal (RT-PCR) compared with controls” value [5] is reported as “significant diminution”, the “DRG sodium channel northern blot signal” value [6] is reported as “substantially reduced” and the “DRG sodium channel signal (RT-PCR) compared with controls” value [7] is reported as “significant diminution”.
In the case of `CCN(CC)CC(=O)Nc1c(C)cccc1C` [lignocaine], the “maximum block of peak current” value [2] is reported as 41.7±5.4%.
With `O=C1NC(=O)C(c2ccccc2)(c2ccccc2)N1` [phenytoin] the “effect on peak current” value ([2]; 100 μM, depolarizing pulses from −60 mV to +10 mV, 1 every min) was “no effect”.
